From paper PMC8409973, “Synthesis, antiproliferative and antitrypanosomal activities, and DNA binding of novel 6-amidino-2-arylbenzothiazoles” (Journal of Enzyme Inhibition and Medicinal Chemistry, 2021)

Assays:
[1] = test system: HeLa (cervical carcinoma); experiment: Proliferation assay (MTT, 72 h) on HeLa; type: cell-based; settings: Homo sapiens
Experimental: (§1) Human cell lines SW620 (colorectal adenocarcinoma, metastatic), MCF-7 (human breast adenocarcinoma), CFPAC-1 (pancreatic adenocarcinoma), HeLa (cervical carcinoma), and HFF-1 (human foreskin fibroblasts) were obtained from the American Type Culture Collection (ATCC). Cells were cultured in a humidified atmosphere at 37 °C with 5% CO2. As a growth medium, Dulbecco’s modified Eagle medium (DMEM) was used with the addition of foetal bovine serum (10%), L-glutamine (2 mM), and antibiotics: streptomycin ([…]) and penicillin (100 U/ml).
(§2) Cells were seeded onto 96-well microtiter plates at a seeding density of 3000 cells/well for carcinoma cell lines, and 5000 cells/well for normal human fibroblasts. The next day, cells were treated with test agents at five different concentrations (0.01–100 µM) and further incubated for 72 h. […] 5-Fluorouracil (5-FU, 0.384 M fluorouracilum, Pliva 500 mg/10 ml) dissolved in physiological solution was used as a positive control. Following 72 h incubation, the MTT assay was performed and measured absorbances were transformed into a percentage of cell growth as described previously. Results were obtained from three independent experiments. IC50 values were calculated using linear regression analysis (FORECAST option taking into account the concentration range of two experimental points above and below IC50).

[2] = test system: MCF-7 (human breast adenocarcinoma); experiment: Proliferation assay (MTT, 72 h) on MCF-7; type: cell-based; settings: MCF7, MCF-7, 72 h
Experimental: as §1, §2

[3] = test system: L6 cells (a rat myoblast line); experiment: L6 cell proliferation (cytotoxicity, resazurin); type: cell-based; settings: for IC50: 144 h, rat myoblast L6, 6 days; for SI IC50 (L6/Tb): SI = [IC50 L6 cells]/[IC50 T. brucei]
[4] = test system: CFPAC-1 (pancreatic adenocarcinoma); experiment: Proliferation assay (MTT, 72 h) on CFPAC-1; type: cell-based; settings: Homo sapiens, CFPAC-1, 72 h
Experimental: as §1, §2

[5] = test system: HFF-1 (human foreskin fibroblasts); experiment: Proliferation assay (MTT, 72 h) on normal fibroblasts HFF-1; type: cell-based; settings: HFF-1 normal fibroblasts
Experimental: as §1, §2

[6] = test system: Bloodstream form T. b. brucei (strain 221); experiment: Antitrypanosomal screening (resazurin); type: cell-based; settings: Trypanosoma brucei; for IC90: concentration that inhibited growth by 90%, mean ± SEM; for IC50: mean of triplicate ± SEM
Experimental: Resazurin (20 μl at 0.125 mg ml^−1) was added after 48 h, the plates were incubated for a further 16 h, and then read in a Spectramax plate reader, and data analysed using GraphPad Prism. Each drug was tested in triplicate.

[7] = test system: SW620 (colorectal adenocarcinoma, metastatic); experiment: Proliferation assay (MTT, 72 h) on SW620; type: cell-based; settings: Homo sapiens, SW-620, SW620, 72 h
Experimental: as §1, §2

Compound: CS(=O)(=O)O.c1ccc(Cn2cc(COc3nc4ccc(C5=NCCN5)cc4s3)nn2)cc1 [11d, 6-(4,5-Dihydro-1H-imidazol-3-ium-2-yl)-2[(1-benzyl-1H-1,2,3-triazol-4-yl)methoxy]benzothiazole methanesulfonate]
- IC50 [1]: 1.4 ± 0.75 µM
- IC50 [2]: 2.21 ± 1.17 µM
- IC50 [3]: < 0.2 µM
- IC50 [4]: 1.21 ± 0.74 µM
- IC50 [5]: 0.18 ± 0.02 µM
- IC90 [6]: 1.3 ± 0.02 µM
- IC50 [6]: 1.09 ± 0.02 µM
- melting point: 227 to 232 °C
- IC50 [7]: 1.81 ± 0.55 µM

Compound: CS(=O)(=O)O.c1ccc(-n2cc(COc3nc4ccc(C5=NCCCN5)cc4s3)nn2)cc1 [12a, 6-(3,4,5,6-Tetrahydropyrimidin-1-ium-2-yl)-2-[(1-phenyl-1H-1,2,3-triazol-4-yl)methoxy] benzothiazole methanesulfonate]
- IC50 [1]: 2.95 ± 0.38 µM
- IC50 [2]: 3.98 ± 0.04 µM
- IC50 [4]: 3.98 ± 0.29 µM
- IC50 [5]: 0.44 ± 0.03 µM
- melting point: 249 to 254 °C
- IC50 [7]: 4.17 ± 0.28 µM

Compound: COc1ccc(-n2cc(COc3nc4ccc(C5=NCCCN5)cc4s3)nn2)cc1.CS(=O)(=O)O [12c, 6-(3,4,5,6-Tetrahydropyrimidin-1-ium-2-yl)-2-{[1-(4-methoxyphenyl)-1H-1,2,3-triazol-4-yl]methoxy}benzothiazole methanesulfonate]
- IC50 [1]: 2.64 ± 0.46 µM
- IC50 [2]: 3.46 ± 0.45 µM
- IC50 [3]: 2.92 ± 0.26 µM
- SI IC50 (L6/Tb) [3]: 3.2
- IC50 [4]: 3.31 ± 0.6 µM
- IC50 [5]: 0.46 ± 0.27 µM
- IC90 [6]: 1.18 ± 0.02 µM
- IC50 [6]: 0.9 ± 0.05 µM
- melting point: 259 to 264 °C
- IC50 [7]: 5.22 ± 1.24 µM

Compound: CS(=O)(=O)O.c1ccc(Cn2cc(COc3nc4ccc(C5=NCCCN5)cc4s3)nn2)cc1 [12d, 6-(3,4,5,6-Tetrahydropyrimidin-1-ium-2-yl)-2-[(1-benzyl-1H-1,2,3-triazol-4-yl)methoxy]benzothiazole methanesulfonate]
- IC50 [1]: 8.6 ± 0.85 µM
- IC50 [2]: 6.01 ± 0.53 µM
- IC50 [4]: 23.4 ± 0.29 µM
- IC50 [5]: 1.74 ± 0.29 µM
- melting point: 197 to 199 °C
- IC50 [7]: 7.94 ± 2.58 µM

Compound: N=C(N)c1ccc2nc(-c3cn(-c4ccccc4)nn3)sc2c1 [13a, 6-Amidinium-2-(1-phenyl-1H-1,2,3-triazole-4-yl)benzothiazole methanesulfonate]
- IC50 [1]: 7.77 ± 0.05 µM
- IC50 [2]: 25.6 ± 3.15 µM
- IC50 [3]: 7.97 ± 0.96 µM
- SI IC50 (L6/Tb) [3]: 3.9
- IC50 [4]: 26.6 ± 4.69 µM
- IC50 [5]: 2.07 ± 0.13 µM
- IC90 [6]: 2.52 ± 0.34 µM
- IC50 [6]: 2.02 ± 0.1 µM
- IC50 [7]: 24.2 ± 4.31 µM

Compound: N=C(N)c1ccc2nc(-c3cn(-c4ccc(Cl)cc4)nn3)sc2c1 [13b, 6-Amidinium-2-[1-(4-chlorophenyl)-1H-1,2,3-triazole-4-yl]benzothiazole methanesulfonate]
- IC50 [1]: 2.74 ± 0.21 µM
- IC50 [2]: 3.32 ± 0.01 µM
- IC50 [3]: 2.69 ± 0.42 µM
- SI IC50 (L6/Tb) [3]: 4.0
- IC50 [4]: 3.17 ± 0.11 µM
- IC50 [5]: 0.85 ± 0.05 µM
- IC90 [6]: 1.02 ± 0.02 µM
- IC50 [6]: 0.67 ± 0.07 µM
- IC50 [7]: 3.55 ± 0.85 µM

Compound: COc1ccc(-n2cc(-c3nc4ccc(C(=N)N)cc4s3)nn2)cc1 [13c, 6-Amidinium-2-[1-(4-methoxyphenyl)-1H-1,2,3-triazole-4-yl]benzothiazole methanesulfonate]
- IC50 [1]: 3.64 ± 1.44 µM
- IC50 [2]: 4.5 ± 0.43 µM
- IC50 [4]: 5.23 ± 0.87 µM
- IC50 [5]: 2.99 ± 1.17 µM
- IC50 [7]: 5.39 ± 0.41 µM

Compound: N=C(N)c1ccc2nc(-c3cn(Cc4ccccc4)nn3)sc2c1 [13d, 6-Amidinium-2-(1-benzyl-1H-1,2,3-triazole-4-yl)benzothiazole methanesulfonate]
- IC50 [1]: 14.9 ± 1.54 µM
- IC50 [2]: 22.6 ± 0.91 µM
- IC50 [4]: 25.9 ± 3.71 µM
- IC50 [5]: 4.04 ± 1.35 µM
- IC50 [7]: 9.48 ± 0.29 µM

Compound: CS(=O)(=O)O.c1ccc(Cn2cc(-c3nc4ccc(C5=NCCN5)cc4s3)nn2)cc1 [14d, 6-(4,5-Dihydro-1H-imidazol-3-ium-2-yl)-2-(1-benzyl-1H-1,2,3-triazole-4-yl)benzothiazole methanesulfonate]
- IC50 [1]: 0.82 ± 0.01 µM
- IC50 [2]: 1.76 ± 1.17 µM
- IC50 [3]: 6.64 ± 0.53 µM
- SI IC50 (L6/Tb) [3]: 1.8
- IC50 [4]: 8.71 ± 3.74 µM
- IC50 [5]: 0.11 ± 0.01 µM
- IC90 [6]: 8.66 ± 0.2 µM
- IC50 [6]: 3.68 ± 0.22 µM
- melting point: 236 to 240 °C
- IC50 [7]: 0.85 ± 0.61 µM

Compound: CS(=O)(=O)O.c1ccc(-n2cc(-c3nc4ccc(C5=NCCCN5)cc4s3)nn2)cc1 [15a, 6-(3,4,5,6-Tetrahydropyrimidin-1-ium-2-yl)-2-(1-phenyl-1H-1,2,3-triazole-4-yl)benzothiazole methanesulfonate]
- IC50 [1]: 7.62 ± 0.84 µM
- IC50 [2]: 8.31 ± 0.12 µM
- IC50 [4]: 37.6 ± 4.58 µM
- IC50 [5]: 0.53 ± 0.1 µM
- melting point: 269 to 274 °C
- IC50 [7]: 4.15 ± 1.58 µM

Compound: COc1ccc(-n2cc(-c3nc4ccc(C5=NCCCN5)cc4s3)nn2)cc1.CS(=O)(=O)O [15c, 6-(3,4,5,6-Tetrahydropyrimidin-1-ium-2-yl)-2-[1-(4-methoxyphenyl)-1H-1,2,3-triazole-4-yl]benzothiazole methanesulfonate]
- IC50 [1]: 4.3 ± 0.41 µM
- IC50 [2]: 4.28 ± 0.06 µM
- IC50 [4]: 4.74 ± 0.14 µM
- IC50 [5]: 1.33 ± 0.17 µM
- melting point: 261 to 265 °C
- IC50 [7]: 4.07 ± 1.06 µM

Compound: CS(=O)(=O)O.c1ccc(Cn2cc(-c3nc4ccc(C5=NCCCN5)cc4s3)nn2)cc1 [15d, 6-(3,4,5,6-Tetrahydropyrimidin-1-ium-2-yl)-2-(1-benzyl-1H-1,2,3-triazole-4-yl)benzothiazole methanesulfonate]
- IC50 [1]: 31 ± 4.5 µM
- IC50 [2]: 40.6 ± 10.6 µM
- IC50 [4]: 49.9 ± 12.5 µM
- IC50 [5]: 18.9 ± 0.19 µM
- melting point: 170 to 174 °C
- IC50 [7]: 31.9 ± 8.38 µM
